Values of other authors, collected in patent publication US20250032643A1, “SYNTHETIC RECEPTORS” (UCL BUSINESS LTD, priority 2021, published 2025).

Target: T1, α1B (Homo sapiens, UniProt P35368)
T1 sequence (P35368 1-520): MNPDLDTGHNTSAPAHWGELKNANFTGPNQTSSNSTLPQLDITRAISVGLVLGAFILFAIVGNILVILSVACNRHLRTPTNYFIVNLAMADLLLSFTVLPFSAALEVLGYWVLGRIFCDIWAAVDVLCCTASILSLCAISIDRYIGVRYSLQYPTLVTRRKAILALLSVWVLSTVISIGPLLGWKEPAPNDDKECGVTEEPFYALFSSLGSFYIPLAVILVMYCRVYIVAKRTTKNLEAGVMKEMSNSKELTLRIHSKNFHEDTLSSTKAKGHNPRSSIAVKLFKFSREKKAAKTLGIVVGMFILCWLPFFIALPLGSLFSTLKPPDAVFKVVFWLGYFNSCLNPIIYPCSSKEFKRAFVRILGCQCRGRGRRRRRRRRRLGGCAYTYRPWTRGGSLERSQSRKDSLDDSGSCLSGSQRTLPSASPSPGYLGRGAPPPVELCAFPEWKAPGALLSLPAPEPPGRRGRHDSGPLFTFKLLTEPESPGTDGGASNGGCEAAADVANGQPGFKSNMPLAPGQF
Details: read-out: binding affinity; native α1B receptor

Ki: > 1000 nM
SMILES: CN(C)CCOC(c1ccccc1)c1ccccc1 [DPH, diphenhydramine]
